“Also recorded” adds a separate entry of the source.
Legend:
[1] = test system: JAK2V617F PV/MF mouse model; assay: JAK2V617F PV/MF mouse model, 14 consecutive days oral dosing (Example 3); settings: ruxolitinib 60 mg/kg BID, Compound A 75 mg/kg QD, 14 days; for body weight change: FIG. 4A; for bone marrow cellularity / bone marrow toxicity: FIG. 4B; for WBC count: FIG. 4C; for platelet count: FIG. 4D; for elevated hematocrit / splenomegaly: vs vehicle; for elevated hematocrit: FIG. 3A; for splenomegaly: FIG. 3B
Source text: For treatment studies, bone marrow (BM) from primary Jak2V617F Vav-Cre CD45.2 mice was mixed 1:1 with Jak2 wild-type CD45.1 BM and transplanted into lethally irradiated CD45.1 recipients. Development of the MPN phenotype was confirmed by peripheral blood counts 2 months after BM transplantation. Mice were randomized to treatment groups according to blood counts and treated by oral gavage for 1-4 weeks.

[2] = test system: CD34+ peripheral blood mononuclear cells (PBMCs) of a MF patient; assay: Colony growth from CD34+ PBMCs of a MF patient; type: cell-based, human; settings: FIG. 5A
Jak2V617F mice = assay: Jak2V617F knock-in mouse model (polycythemia vera phenotype), competitive BM transplant; type: in vivo; settings: for reduction of hematocrit: Example 4, FIG. 5B
MPLW515L mice = assay: MPLW515L mutant MPN mouse model; type: in vivo; settings: oral gavage, FIG. 2D
[3] = test system: Ba/F3 cell line stably expressing erythropoietin receptor (EpoR) and wild-type JAK2; assay: Antiproliferative activity, CellTiter-Glo viability assay at 48h, Ba/F3 EpoR wild-type JAK2; type: cell-based, murine; settings: EpoR Jak2 wild type Ba/F3 cells; FIG. 6
Protocol: (§1) To assess anti-proliferative effects of inhibitors, cells were seeded at 10′000/200 ul with increasing inhibitor concentrations in triplicate. Proliferation was assessed at 48h using the CellTiter-Glo viability assay (Promega) and normalized to cell growth in medium with equivalent volume of DMSO.

[4] = test system: Ba/F3 cell line stably expressing erythropoietin receptor (EpoR) and Jak2V617F; assay: Antiproliferative activity, CellTiter-Glo viability assay at 48h, Ba/F3 EpoR Jak2V617F; type: cell-based, murine; settings: EpoR Jak2V617F mutant Ba/F3 cells; FIG. 6
Protocol: as §1

[5] = test system: ERK downstream targets RSK3 and DUSP6; assay: ERK signaling in splenocytes of Jak2V617F mice by Western blot; type: in vivo, mouse; settings: FIG. 2A

Compound | polycythemia [1] | tolerability [1] | body weight change [1] | bone marrow cellularity / bone marrow toxicity [1] | WBC count [1] | platelet count [1] | elevated hematocrit [1] | elevated hematocrit ([1]; listed as Ruxolitinib) | splenomegaly [1] | splenomegaly ([1]; listed as Ruxolitinib) | growth of colonies derived from CD34+ PBMCs [2] | reduction of hematocrit (Jak2V617F mice) | correction of leukocytosis (WBC count) (MPLW515L mice) | suppression of proliferation (decrease in IC50 value) [3] | suppression of proliferation (decrease in IC50 value) [4] | activation of ERK downstream targets RSK3 and DUSP6 [5] | polyglobulia or polycythemia (hematocrit levels) (Jak2V617F mice; oral gavage, FIG. 2B) | splenomegaly (spleen weight) (Jak2V617F mice; oral gavage, FIG. 2C)
N#CC[C@H](C1CCCC1)n1cc(-c2ncnc3[nH]ccc23)cn1 [ruxolitinib, (R)-3-(4-(7H-pyrrolo[2,3-d]pyrimidin-4-yl)-1H-pyrazol-1-yl)-3-cyclopentylpropanenitrile, reference compound] | significantly normalized | well tolerated | lack of body weight loss | absence of bone marrow toxicity | normal | normal; also recorded: absence of thrombocytopenia | significantly normalized | significantly reduced | significantly normalized | significantly reduced | comparably suppressed growth | comparable reduction | superior to that of Compound A |  |  |  |  | 
CNC[C@@H](NC(=O)c1ccc(-c2nc([C@H]3CC[C@H](O)[C@@H](F)C3)cnc2N)cc1F)c1cc(F)cc(Br)c1 [Compound A, 4-(3-amino-6-((1S,3S,4S)-3-fluoro-4-hydroxycyclohexyl)pyrazin-2-yl)-N-((S)-1-(3-bromo-5-fluorophenyl)-2-(methylamino)ethyl)-2-fluorobenzamide] | significantly normalizes | well tolerated | lack of body weight loss | absence of bone marrow toxicity | normal | normal; also recorded: absence of thrombocytopenia | significantly normalized; also recorded: significantly reduced; also recorded: reduces |  | significantly normalizes; also recorded: significantly reduced |  | comparably suppressed growth | comparable reduction | ruxolitinib was superior to that of Compound A | ruxolitinib was superior to that of Compound A | ruxolitinib was superior to that of Compound A | inhibited activation | potently corrected | potently corrected
